Experimental data taken from patent US10266609B2, “Immunomodulating beta-1,6-D-glucans” (Innate Biotherapeutics, LLC, priority 2014, dated 2019).

Tested on: Anti-β-1,6-Glucan IgG antibodies (affinity purified from IVIG, Baxter)
Test: ELISA: binding of oligosaccharides to anti-β-1,6-glucan antibodies; also: key: a plus (+) sign indicates that the glucan was active in the assay; a minus (−) sign indicates that the glucan was not active; the '+/−' symbol indicates inconclusive results
Conditions: plate coated with oligosaccharide in PBS; 40 ug/mL anti-Beta 1,6 Glucan IgG; anti-human IgG-HRP, TMB, absorbance at 620 nm
Procedure: Binding of oligosaccharides to anti-β-1,6-glucan antibodies is performed as described in the following protocol.
• 1. […] Anti-β-1,6-Glucan IgG antibodies (affinity purified from IVIG, Baxter) • 6. […] PBS-Tween buffer (PH 7.2, 0.05% Tween 20, Kpl cat #51-12-01) II. Method: Detection of Anti-Beta Glucan IgG by ELISA • 1. Coat plate with oligosaccharides in PBS overnight at 4° C. • 2. Wash 3 times with 250 uL of PBS-Tween • 3. Empty plate • 4. Block plate with 200 uL of Casein for 1 hour at room temperature • 5. Empty plate • 6. Add 40 ug/mL anti-Beta 1,6 Glucan IgG (4 ug/well) in Casein • 7. Incubate for 45 min at room temperature • 8. Wash 3 times with 250 uL of PBS-Tween • 9. Empty plate • 10. Add detection antibody: anti-human IgG-HRP at 1:5000—in casein. Incubate for 45 min at room temperature in the dark • 11. Wash 5 times with 250 uL of PBS-Tween • 12. Empty plate • 13. Add 100 uL of one step ultra TMB • 14. Measure the absorbance at 620 nm every 1 min for 60 min Tables 1-3 provide ELISA assay data for certain glucan compounds.

Row | Compound | ELISA assay data: glucan active in detection of anti-beta glucan IgG
1 | O=C(O)c1cc(OCc2cn(CCO[C@@H]3O[C@H](CO[C@@H]4O[C@H](CO[C@@H]5O[C@H](CO[C@@H]6O[C@H](CO[C@@H]7O[C@H](CO[C@@H]8O[C@H](CO)[C@@H](O)[C@H](O)[C@H]8O)[C@@H](O)[C@H](O)[C@H]7O)[C@@H](O)[C@H](O)[C@H]6O)[C@@H](O)[C@H](O)[C@H]5O)[C@@H](O)[C@H](O)[C@H]4O)[C@@H](O)[C@H](O)[C@H]3O)nn2)cc(OCc2cn(CCO[C@@H]3O[C@H](CO[C@@H]4O[C@H](CO[C@@H]5O[C@H](CO[C@@H]6O[C@H](CO[C@@H]7O[C@H](CO[C@@H]8O[C@H](CO)[C@@H](O)[C@H](O)[C@H]8O)[C@@H](O)[C@H](O)[C@H]7O)[C@@H](O)[C@H](O)[C@H]6O)[C@@H](O)[C@H](O)[C@H]5O)[C@@H](O)[C@H](O)[C@H]4O)[C@@H](O)[C@H](O)[C@H]3O)nn2)c1 [(β-D-glucopyanosy1-1,6)nβ-O(CH2)2-, n=6, 3,5-bis(1[2-[O-β-D-glucopyranosyl-(1→6)]6oxy]ethyl-1H-1,2,3-triazol-4-yl)methoxybenzoic acid] | +
2 | OC[C@H]1O[C@@H](OC[C@H]2OC(O)[C@H](O)[C@@H](O)[C@@H]2O)[C@H](O)[C@@H](O)[C@@H]1O (stereo partly drawn) [OH, n=2] | +
3 | OC[C@H]1O[C@@H](OC[C@H]2O[C@@H](OC[C@H]3OC(O)[C@H](O)[C@@H](O)[C@@H]3O)[C@H](O)[C@@H](O)[C@@H]2O)[C@H](O)[C@@H](O)[C@@H]1O (stereo partly drawn) [OH, n=3] | +
4 | OCC1OC(OCC2OC(OCC3OC(OCC4OC(O)C(O)C(O)C4O)C(O)C(O)C3O)C(O)C(O)C2O)C(O)C(O)C1O (stereo not drawn) [OH, n=4] | +
5 | OCC1OC(OCC2OC(OCC3OC(OCC4OC(OCC5OC(O)C(O)C(O)C5O)C(O)C(O)C4O)C(O)C(O)C3O)C(O)C(O)C2O)C(O)C(O)C1O (stereo not drawn) [OH, n=5] | +
6 | OCC1OC(OCC2OC(OCC3OC(OCC4OC(OCC5OC(OCC6OC(OCC7OC(OCC8OC(O)C(O)C(O)C8O)C(O)C(O)C7O)C(O)C(O)C6O)C(O)C(O)C5O)C(O)C(O)C4O)C(O)C(O)C3O)C(O)C(O)C2O)C(O)C(O)C1O (stereo not drawn) [OH, n=8] | +

Now from value to compound:

Row | ELISA assay data: glucan active in detection of anti-beta glucan IgG | Compound
7 | + | COC1O[C@H](CO[C@@H]2O[C@H](CO[C@@H]3O[C@H](CO)[C@@H](O)[C@H](O)[C@H]3O)[C@@H](O)[C@H](O)[C@H]2O)[C@@H](O)[C@H](O)[C@H]1O (stereo partly drawn) [OCH3, n=3, methyl [O-β-D-glucopyranosyl-1,6]2-D-glucopyranoside]
8 | + | COC1O[C@H](CO[C@@H]2O[C@H](CO[C@@H]3O[C@H](CO[C@@H]4O[C@H](CO)[C@@H](O)[C@H](O)[C@H]4O)[C@@H](O)[C@H](O)[C@H]3O)[C@@H](O)[C@H](O)[C@H]2O)[C@@H](O)[C@H](O)[C@H]1O (stereo partly drawn) [OCH3, n=4, methyl [O-β-D-glucopyranosyl-1,6]3-D-glucopyranoside]
9 | + | COC1O[C@H](CO[C@@H]2O[C@H](CO[C@@H]3O[C@H](CO[C@@H]4O[C@H](CO[C@@H]5O[C@H](CO)[C@@H](O)[C@H](O)[C@H]5O)[C@@H](O)[C@H](O)[C@H]4O)[C@@H](O)[C@H](O)[C@H]3O)[C@@H](O)[C@H](O)[C@H]2O)[C@@H](O)[C@H](O)[C@H]1O (stereo partly drawn) [OCH3, n=5, methyl [O-β-D-glucopyranosyl-1,6-]4-D-glucopyranoside]
10 | + | CO[C@H]1O[C@H](CO[C@@H]2O[C@H](CO[C@@H]3O[C@H](CO[C@@H]4O[C@H](CO[C@@H]5O[C@H](CO[C@@H]6O[C@H](CO)[C@@H](O)[C@H](O)[C@H]6O)[C@@H](O)[C@H](O)[C@H]5O)[C@@H](O)[C@H](O)[C@H]4O)[C@@H](O)[C@H](O)[C@H]3O)[C@@H](O)[C@H](O)[C@H]2O)[C@@H](O)[C@H](O)[C@H]1O [OCH3, n=6, methyl [O-β-D-glucopyranosyl-1,6]5-D-glucopyranoside]
11 | + | COC1O[C@H](CO[C@@H]2O[C@H](CO[C@@H]3O[C@H](CO[C@@H]4O[C@H](CO[C@@H]5O[C@H](CO[C@@H]6O[C@H](CO[C@@H]7O[C@H](CO)[C@@H](O)[C@H](O)[C@H]7O)[C@@H](O)[C@H](O)[C@H]6O)[C@@H](O)[C@H](O)[C@H]5O)[C@@H](O)[C@H](O)[C@H]4O)[C@@H](O)[C@H](O)[C@H]3O)[C@@H](O)[C@H](O)[C@H]2O)[C@@H](O)[C@H](O)[C@H]1O (stereo partly drawn) [OCH3, n=7, methyl [O-β-D-glucopyranosyl-1,6]6-D-glucopyranoside]
12 | + | COC1O[C@H](CO[C@@H]2O[C@H](CO[C@@H]3O[C@H](CO[C@@H]4O[C@H](CO[C@@H]5O[C@H](CO[C@@H]6O[C@H](CO[C@@H]7O[C@H](CO[C@@H]8O[C@H](CO)[C@@H](O)[C@H](O)[C@H]8O)[C@@H](O)[C@H](O)[C@H]7O)[C@@H](O)[C@H](O)[C@H]6O)[C@@H](O)[C@H](O)[C@H]5O)[C@@H](O)[C@H](O)[C@H]4O)[C@@H](O)[C@H](O)[C@H]3O)[C@@H](O)[C@H](O)[C@H]2O)[C@@H](O)[C@H](O)[C@H]1O (stereo partly drawn) [OCH3, n=8, methyl [O-β-D-glucopyranosyl-1,6]7-D-glucopyranoside]
13 | + | COC1O[C@H](CO[C@@H]2O[C@H](CO[C@@H]3O[C@H](CO[C@@H]4O[C@H](CO[C@@H]5O[C@H](CO[C@@H]6O[C@H](CO[C@@H]7O[C@H](CO[C@@H]8O[C@H](CO[C@@H]9O[C@H](CO)[C@@H](O)[C@H](O)[C@H]9O)[C@@H](O)[C@H](O)[C@H]8O)[C@@H](O)[C@H](O)[C@H]7O)[C@@H](O)[C@H](O)[C@H]6O)[C@@H](O)[C@H](O)[C@H]5O)[C@@H](O)[C@H](O)[C@H]4O)[C@@H](O)[C@H](O)[C@H]3O)[C@@H](O)[C@H](O)[C@H]2O)[C@@H](O)[C@H](O)[C@H]1O (stereo partly drawn) [OCH3, n=9, methyl [O-β-D-glucopyranosyl-1,6]8-D-glucopyranoside]
14 | + | COC1O[C@H](CO[C@@H]2O[C@H](CO[C@@H]3O[C@H](CO[C@@H]4O[C@H](CO[C@@H]5O[C@H](CO[C@@H]6O[C@H](CO[C@@H]7O[C@H](CO[C@@H]8O[C@H](CO[C@@H]9O[C@H](CO[C@@H]%10O[C@H](CO)[C@@H](O)[C@H](O)[C@H]%10O)[C@@H](O)[C@H](O)[C@H]9O)[C@@H](O)[C@H](O)[C@H]8O)[C@@H](O)[C@H](O)[C@H]7O)[C@@H](O)[C@H](O)[C@H]6O)[C@@H](O)[C@H](O)[C@H]5O)[C@@H](O)[C@H](O)[C@H]4O)[C@@H](O)[C@H](O)[C@H]3O)[C@@H](O)[C@H](O)[C@H]2O)[C@@H](O)[C@H](O)[C@H]1O (stereo partly drawn) [OCH3, n=10, methyl [O-β-D-glucopyranosyl-1,6]9-D-glucopyranoside]
15 | + | COC1O[C@H](CO[C@@H]2O[C@H](CO[C@@H]3O[C@H](CO[C@@H]4O[C@H](CO[C@@H]5O[C@H](CO[C@@H]6O[C@H](CO[C@@H]7O[C@H](CO[C@@H]8O[C@H](CO[C@@H]9O[C@H](CO[C@@H]%10O[C@H](CO[C@@H]%11O[C@H](CO)[C@@H](O)[C@H](O)[C@H]%11O)[C@@H](O)[C@H](O)[C@H]%10O)[C@@H](O)[C@H](O)[C@H]9O)[C@@H](O)[C@H](O)[C@H]8O)[C@@H](O)[C@H](O)[C@H]7O)[C@@H](O)[C@H](O)[C@H]6O)[C@@H](O)[C@H](O)[C@H]5O)[C@@H](O)[C@H](O)[C@H]4O)[C@@H](O)[C@H](O)[C@H]3O)[C@@H](O)[C@H](O)[C@H]2O)[C@@H](O)[C@H](O)[C@H]1O (stereo partly drawn) [OCH3, n=11, methyl [O-β-D-glucopyranosyl-1,6]10-D-glucopyranoside]
